According to patent US12186325B2, “Treatment and prevention of premature ejaculation (PE)” (SEROJAC PME Handels GmbH, priority 2018, dated 2025):
Where two headings read alike, the source gives them in different places.

Legend:
[1] = cited from earlier work
[2] = system: premature ejaculation (PE); assay: Case reports: intravaginal ejaculation latency time (IELT) in PE patients; type: in vivo, human
[3] = Case reports: tolerability and side effects in PE patients; type: in vivo, human
[4] = system: premature ejaculation (PE); details: cited from earlier work
[5] = cited from earlier work; for peak plasma concentration: healthy volunteers
[6] = system: erectile dysfunction; assay: Case reports: erection / ability to achieve intercourse; type: in vivo, human; details: Case Report 6; 12 mg yohimbine daily alone, in two doses
Text: A patient complained about erectile dysfunction and PE.
A patient complained about primary PE and about psychogenic erectile dysfunction.

[7] = system: male rats; details: male rats (Shekar et al. 2017); cited from earlier work
[8] = system: seminal vesicle; details: electrical nerve stimulation (Hsieh et al. 1999); cited from earlier work
[9] = system: aged male rats; details: cited from earlier work
[10] = metabolite after oral clomipramine

Q: For `COC(=O)[C@@H]1[C@H]2C[C@H]3c4[nH]c5cc(O)ccc5c4CCN3C[C@@H]2CC[C@@H]1O` [11-hydroxy-yohimbine], which “elimination half-life of active metabolite” value ([1]; single-dose yohimbine studies) is on record?
A: The value was 6 h.

Q: For `CN(C)CCCN1c2ccccc2CCc2ccc(Cl)cc21` [clomipramine, 3-(3-chloro-10,11-dihydro-5H-dibenzo[b,f]azepin-5-yl)-N,N-dimethylpropan-1-amine], which IELT after treatment ([2]; Case Report 5, 30 mg clomipramine alone 6 hours before sexual intercourse, before: 1 minute) is on record?
A: The IELT after treatment was 6 min.

Q: And the side effects reported ([3]; Case Report 5, 30 mg clomipramine alone 6 hours before sexual intercourse)?
A: Its side effects reported is “dizziness, dyspepsia and constipation”.

Q: And the “time to climax in premature ejaculators” value ([4]; 50 mg clomipramine)?
A: The value was “more than 8 minutes”.

Q: What about the latency to ejaculation ([4]; 25 milligrams clomipramine 12 to 24 hours before sexual activity, from about 1.5 to 2 minutes) of the same molecule?
A: The latency to ejaculation was “about 8 minutes”.

Q: What about the peak plasma concentration ([5]; single oral dose 50 mg) of the same molecule?
A: Its peak plasma concentration is 28.8 ± 11.2 ng/mL.

Q: And the peak plasma concentration ([5]; single oral dose 100 mg)?
A: Its peak plasma concentration is 70 to 140 ng/mL.

Q: Which results are given for `CNCCCN1c2ccccc2CCc2ccc(Cl)cc21` [desmethylclomipramine]?
A: peak plasma concentration of metabolite ([5]; after single oral dose of 50 mg clomipramine): 5.0 ± 1.4 ng/mL; half-life [5, 10]: 36 h; half-life, upper limit in brackets [5, 10]: up to 9 hours

Q: Which “outcome of earlier PE treatment” value ([2]; Case Report 1, 20 to 40 mg daily for 6 months) does the source give for `Fc1ccc([C@@H]2CCNC[C@H]2COc2ccc3c(c2)OCO3)cc1` [paroxetine] here?
A: The value was “unsuccessfully”.

Q: For `CN[C@H]1CC[C@@H](c2ccc(Cl)c(Cl)c2)c2ccccc21` [sertraline], which “outcome of earlier PE treatment” value ([2]; Case Report 2, 50-100 mg for 16 weeks) is on record?
A: The value was “unsuccessfully”.

Q: What does the source list for `COC(=O)[C@@H]1[C@H]2C[C@H]3c4[nH]c5ccccc5c4CCN3C[C@@H]2CC[C@@H]1O` [yohimbine, 17α-hydroxy-yohimban-16α-carboxylic acid methyl ester]?
A: time of intercourse ([2]; Case Report 6, 12 mg yohimbine daily alone): no amelioration; side effects reported ([3]; Case Report 6, 12 mg yohimbine daily alone, from the second day of treatment): diarrhoea; erections [6]: improved erections; antagonism of clomipramine-induced sexual dysfunction [7]: failed to antagonize; effect on seminal vesicle contractile response [8]: can suppress; effect on erectile dysfunction [9]: improves erectile dysfunction; elimination half-life ([1]; single-dose studies, oral or intravenous): < 1 h
